Where a name gives a salt, the structure may show the parent alone.
Structure (SMILES) | melting point
CC(C)[C@H](N)C(=O)O[C@@H]1[C@@H](CO[P@@]2(=O)OCC[C@@H](c3cccc(Cl)c3)O2)O[C@@H](n2cnc3c(O)nc(N)nc32)[C@]1(C)O (as salt: trifluoroacetate) [Compound 118, 2(R)-(2-Amino-6-hydroxy-9 (H)-purinyl)-5(R)-(4(S)-(3-chlorophenyl)-2-oxo-1,3,2-dioxaphosphorinan-2(R)-yloxymethyl)-3(R)-hydroxy-3(R)-methyl-4(R)-L-valinyl-tetrahydrofuran] | > 210 °C
CCOc1nc(N)nc2c1ncn2[C@@H]1O[C@H](CO[P@@]2(=O)OCC[C@@H](c3cccc(Cl)c3)O2)[C@@H](OC(=O)[C@@H](N)C(C)C)[C@@]1(C)O (as salt: trifluoroacetate) [Compound 184, 2(R)-(2-Amino-6-ethoxy-9(H)-purinyl)-5(R)-(4(S)-(3-chlorophenyl)-2-oxo-1,3,2-dioxaphosphorinan-2(R)-yloxymethyl)-3(R)-hydroxy-3(R)-methyl-4(R)-L-valinyl-tetrahydrofuran] | 128 to 130 °C
CCOc1nc(N)nc2c1ncn2[C@@H]1O[C@H](CO[P@@]2(=O)OCC[C@@H](c3cccc(Cl)c3)O2)[C@@H](OC(=O)C(C)C)[C@@]1(C)O (as salt: trifluoroacetate) [Compound 185, 2(R)-(2-Amino-6-ethoxy-9(H)-purinyl)-5(R)-(4(S)-(3-chlorophenyl)-2-oxo-1,3,2-dioxaphosphorinan-2(R)-yloxymethyl)-3(R)-hydroxy-3(R)-methyl-4(R)-isobutyryloxy-tetrahydrofuran] | 162 to 165 °C
C[C@@]12OC(=O)O[C@@H]1[C@@H](CO[P@@]1(=O)OCC[C@@H](c3cc(F)cc(F)c3)O1)O[C@H]2n1cnc2c(O)nc(N)nc21 [Compound 101, 2(R)-(2-Amino-6-hydroxy-9(H)-purinyl)-4(R)-(4(S)-(3,5-difluorophenyl)-2-oxo-1,3,2-dioxaphosphorinan-2-(R)-yloxymethyl)-1(R)-methyl-7-oxo-3,6,8-trioxa-cis-bicyclo[3.3.0]octane] | 234 to 236 °C
C[C@@]12OC(=O)O[C@@H]1[C@@H](CO[P@@]1(=O)OCC[C@@H](c3cccc(Cl)c3)O1)O[C@H]2n1cnc2c(O)nc(N)nc21 [Compound 106, 2(R)-(2-Amino-6-hydroxy-9 (H)-purinyl)-4(R)-(4(S)-(3-chlorophenyl)-2-oxo-1,3,2-dioxaphosphorinan-2(R)-yloxymethyl)-1(R)-methyl-7-oxo-3,6,8-trioxa-cis-bicyclo[3.3.0]octane] | > 200 °C
C[C@@]12OC(=O)O[C@@H]1[C@@H](CO[P@@]1(=O)OCC[C@@H](c3cccc(C#N)c3)O1)O[C@H]2n1cnc2c(O)nc(N)nc21 [Compound 109, 2(R)-(2-Amino-6-hydroxy-9 (H)-purinyl)-4(R)-(4(S)-(3-cyanophenyl)-2-oxo-1,3,2-dioxaphosphorinan-2(R)-yloxymethyl)-1(R)-methyl-7-oxo-3,6,8-trioxa-cis-bicyclo[3.3.0]octane] | 218 to 220 °C
CC(C)C(=O)O[C@@H]1[C@@H](CO[P@@]2(=O)OCC[C@@H](c3cccc(Cl)c3)O2)O[C@@H](n2cnc3c(O)nc(N)nc32)[C@]1(C)O [Compound 117, 2(R)-(2-Amino-6-hydroxy-9(H)-purinyl)-5(R)-(4(S)-(3-chlorophenyl)-2-oxo-1,3,2-dioxaphosphorinan-2(R)-yloxymethyl)-3(R)-hydroxy-3(R)-methyl-4(R)-(2-methyl-1-oxopropoxy)-tetrahydrofuran] | > 200 °C
COc1nc(N)nc2c1ncn2[C@@H]1O[C@H](CO[P@@]2(=O)OCC[C@@H](c3cccc(Cl)c3)O2)[C@H]2OC(=O)O[C@]21C [Compound 119, 2(R)-(2-Amino-6-methoxy-9(H)-purinyl)-4(R)-(4(S)-(3-chlorophenyl)-2-oxo-1,3,2-dioxaphosphorinan-2(R)-yloxymethyl)-1(R)-methyl-7-oxo-3,6,8-trioxa-cis-bicyclo[3.3.0]octane] | 125 to 130 °C
CCOc1nc(N)nc2c1ncn2[C@@H]1O[C@H](CO[P@@]2(=O)OCC[C@@H](c3cccc(Cl)c3)O2)[C@H]2OC(=O)O[C@]21C [Compound 120, 2(R)-(2-Amino-6-ethoxy-9(H)-purinyl)-4(R)-(4(S)-(3-chlorophenyl)-2-oxo-1,3,2-dioxaphosphorinan-2(R)-yloxymethyl)-1(R)-methyl-7-oxo-3,6,8-trioxa-cis-bicyclo[3.3.0]octane] | 82 to 84 °C
C[C@@]12OC(=O)O[C@@H]1[C@@H](CO[P@@]1(=O)OCC[C@@H](c3cccc(Cl)c3)O1)O[C@H]2n1cnc2c(OCC3CC3)nc(N)nc21 [Compound 121, 2(R)-(2-Amino-6-cyclopropylmethoxy-9(H)-purinyl)-4(R)-(4(S)-(3-chlorophenyl)-2-oxo-1,3,2-dioxaphosphorinan-2(R)-yloxymethyl)-1(R)-methyl-7-oxo-3,6,8-trioxa-cis-bicyclo[3.3.0]octane] | 128 to 132 °C
CC(C)COc1nc(N)nc2c1ncn2[C@@H]1O[C@H](CO[P@@]2(=O)OCC[C@@H](c3cccc(Cl)c3)O2)[C@H]2OC(=O)O[C@]21C [Compound 122, 2(R)-(2-Amino-6-(2-methylpropyloxy)-9(H)-purinyl)-4(R)-(4(S)-(3-chlorophenyl)-2-oxo-1,3,2-dioxaphosphorinan-2(R)-yloxymethyl)-1(R)-methyl-7-oxo-3,6,8-trioxa-cis-bicyclo[3.3.0]octane] | 118 to 122 °C
CCOc1nc(N)nc2c1ncn2[C@@H]1O[C@H](CO[P@@]2(=O)OCC[C@@H](c3cccc(Br)c3)O2)[C@H]2OC(=O)O[C@]21C [Compound 123, 2(R)-(2-Amino-6-ethoxy-9(H)-purinyl)-4(R)-(4(S)-(3-bromophenyl)-2-oxo-1,3,2-dioxaphosphorinan-2(R)-yloxymethyl)-1(R)-methyl-7-oxo-3,6,8-trioxa-cis-bicyclo[3.3.0]octane] | 77 to 80 °C
CCOc1nc(N)nc2c1ncn2[C@@H]1O[C@H](CO[P@@]2(=O)OCC[C@@H](c3cccc(F)c3)O2)[C@H]2OC(=O)O[C@]21C [Compound 124, 2(R)-(2-Amino-6-ethoxy-9(H)-purinyl)-4(R)-(4(S)-(3-fluorophenyl)-2-oxo-1,3,2-dioxaphosphorinan-2(R)-yloxymethyl)-1(R)-methyl-7-oxo-3,6,8-trioxa-cis-bicyclo[3.3.0]octane] | 88 to 90 °C
C[C@@]12OC(=O)O[C@@H]1[C@@H](CO[P@@]1(=O)OCC[C@@H](c3cccc(Cl)c3)O1)O[C@H]2n1cnc2c(OC3CCCC3)nc(N)nc21 [Compound 125, 2(R)-(2-Amino-6-cyclopentyloxy-9(H)-purinyl)-4(R)-(4(S)-(3-chlorophenyl)-2-oxo-1,3,2-dioxaphosphorinan-2(R)-yloxymethyl)-1(R)-methyl-7-oxo-3,6,8-trioxa-cis-bicyclo[3.3.0]octane] | 107 to 109 °C
CCOc1nc(N)nc2c1ncn2[C@@H]1O[C@H](CO[P@@]2(=O)OCC[C@@H](c3cc(F)cc(F)c3)O2)[C@H]2OC(=O)O[C@]21C [Compound 126, 2(R)-(2-Amino-6-ethoxy-9(H)-purinyl)-4(R)-(4(S)-(3,5-difluorophenyl)-2-oxo-1,3,2-dioxaphosphorinan-2(R)-yloxymethyl)-1(R)-methyl-7-oxo-3,6,8-trioxa-cis-bicyclo[3.3.0]octane] | 96 to 98 °C
CCOc1nc(N)nc2c1ncn2[C@@H]1O[C@H](CO[P@@]2(=O)OCC[C@@H](c3cc(Cl)cc(Cl)c3)O2)[C@H]2OC(=O)O[C@]21C [Compound 127, 2(R)-(2-Amino-6-ethoxy-9(H)-purinyl)-4(R)-(4(S)-(3,5-dichlorophenyl)-2-oxo-1,3,2-dioxaphosphorinan-2(R)-yloxymethyl)-1(R)-methyl-7-oxo-3,6,8-trioxa-cis-bicyclo[3.3.0]octane] | 101 to 103 °C
CCOc1nc(N)nc2c1ncn2[C@@H]1O[C@H](CO[P@]2(=O)OCC[C@H](c3cc(Cl)cc(Cl)c3)O2)[C@H]2OC(=O)O[C@]21C [Compound 128, 2(R)-(2-Amino-6-ethoxy-9(H)-purinyl)-4(R)-(4(R)-(3,5-dichlorophenyl)-2-oxo-1,3,2-dioxaphosphorinan-2(S)-yloxymethyl)-1(R)-methyl-7-oxo-3,6,8-trioxa-cis-bicyclo[3.3.0]octane] | 101 to 103 °C
C[C@@]12OC(=O)O[C@@H]1[C@@H](CO[P@@]1(=O)OCC[C@@H](c3cccc(Cl)c3)O1)O[C@H]2n1cnc2c(OCC3CCOCC3)nc(N)nc21 [Compound 129, 2(R)-(2-Amino-6-(4-tetrahydropyranylmethoxy)-9(H)-purinyl)-4(R)-(4(S)-(3-chlorophenyl)-2-oxo-1,3,2-dioxaphosphorinan-2(R)-yloxymethyl)-1(R)-methyl-7-oxo-3,6,8-trioxa-cis-bicyclo[3.3.0]octane] | 105 to 108 °C
CSCCCOc1nc(N)nc2c1ncn2[C@@H]1O[C@H](CO[P@@]2(=O)OCC[C@@H](c3cccc(Cl)c3)O2)[C@H]2OC(=O)O[C@]21C [Compound 130, 2(R)-(2-Amino-6-(3-methylthiopropyloxy)-9(H)-purinyl)-4(R)-(4(S)-(3-chlorophenyl)-2-oxo-1,3,2-dioxaphosphorinan-2(R)-yloxymethyl)-1(R)-methyl-7-oxo-3,6,8-trioxa-cis-bicyclo[3.3.0]octane] | 79 to 82 °C
C[C@@]12OC(=O)O[C@@H]1[C@@H](CO[P@@]1(=O)OCC[C@@H](c3cccc(Cl)c3)O1)O[C@H]2n1cnc2c(OCCC3CCCCC3)nc(N)nc21 [Compound 131, 2(R)-(2-Amino-6-(2-cyclohexylethoxy)-9(H)-purinyl)-4(R)-(4(S)-(3-chlorophenyl)-2-oxo-1,3,2-dioxaphosphorinan-2(R)-yloxymethyl)-1(R)-methyl-7-oxo-3,6,8-trioxa-cis-bicyclo[3.3.0]octane] | 93 to 95 °C
CC(C)CCOc1nc(N)nc2c1ncn2[C@@H]1O[C@H](CO[P@@]2(=O)OCC[C@@H](c3cccc(Cl)c3)O2)[C@H]2OC(=O)O[C@]21C [Compound 134, 2(R)-(2-Amino-6-(3-methylbutyloxy)-9(H)-purinyl)-4(R)-(4(S)-(3-chlorophenyl)-2-oxo-1,3,2-dioxaphosphorinan-2(R)-yloxymethyl)-1(R)-methyl-7-oxo-3,6,8-trioxa-cis-bicyclo[3.3.0]octane] | 76 to 78 °C

Reference: patent publication US20140356325A1, “NOVEL 2'-C-METHYL NUCLEOSIDE DERIVATIVE COMPOUNDS” (Ligand Pharmaceuticals Incorporated, priority 2012, published 2014)
